Measurements: ChEMBL document CHEMBL5260810, “Inhibition of bromodomain-containing protein 9 for the prevention of epigenetically-defined drug resistance” (Bioorg Med Chem Lett, 2017)

Columns and labels:
[1] = biological target: Bromodomain-containing protein 4 (Homo sapiens, UniProt O60885); assay: Displacement of biotinylated small-molecule ligand from recombinant His-tagged BRD4 bromodomain 2 (unknown origin) measured after 10 mins by TR-FRET assay
[2] = Cytotoxicity against human NCI-H2803 cells measured after 8 days; assay type: functional, cell-based; conditions: NCI-H2803, 192 h
[3] = Cytotoxicity against mouse Clone M-3 cells measured after 8 days; assay type: functional, cell-based; conditions: Clone M-3, 192 h
[4] = system: COLO-829; assay: Cytotoxicity against human COLO-829 cells measured after 8 days; assay type: functional, cell-based; conditions: COLO-829, 192 h
[5] = system: DOHH-2; assay: Cytotoxicity against human DOHH-2 cells measured after 8 days; assay type: functional, cell-based; conditions: DOHH-2, 192 h
[6] = Cytotoxicity against human CL-11 cells measured after 8 days; assay type: functional, cell-based; conditions: CL-11, 192 h
[7] = system: MIA PaCa-2; assay: Cytotoxicity against human MIA Paca-2 cells measured after 8 days; assay type: functional, cell-based; conditions: MIA PaCa-2, 192 h
[8] = system: COLO-680N; assay: Cytotoxicity against human COLO-680N cells measured after 8 days; assay type: functional, cell-based; conditions: 192 h
[9] = Cytotoxicity against human VP229 cells measured after 8 days; assay type: functional, cell-based; conditions: VP229, 192 h
[10] = system: SW626; assay: Cytotoxicity against human SW626 cells measured after 8 days; assay type: functional, cell-based; conditions: SW626, 192 h
[11] = Cytotoxicity against human SNU-668 cells measured after 8 days; assay type: functional, cell-based; conditions: SNU668, 192 h
[12] = Cytotoxicity against human NCE-G 120 cells measured after 8 days; assay type: functional, cell-based; conditions: NCE-G 120, 192 h
[13] = Cytotoxicity against human GCH-nu-YS cells measured after 8 days; assay type: functional, cell-based; conditions: 192 h
[14] = Cytotoxicity against human HLF cells measured after 8 days; assay type: functional, cell-based; conditions: 192 h
[15] = system: KYSE-70 cell line; assay: Cytotoxicity against human KYSE-70 cell line measured after 8 days; assay type: functional, cell-based; conditions: KYSE-70, 192 h
[16] = system: Ishikawa; assay: Cytotoxicity against human Ishikawa cells measured after 8 days; assay type: functional, cell-based; conditions: 192 h
[17] = system: SK-N-BE(2); assay: Cytotoxicity against human SK-N-BE(2) cells measured after 8 days; assay type: functional, cell-based; conditions: SKNBE2, 192 h
[18] = system: BOKU; assay: Cytotoxicity against human BOKU cells measured after 8 days; assay type: functional, cell-based; conditions: 192 h
[19] = system: U-266; assay: Cytotoxicity against human U266B1 cells measured after 8 days; assay type: functional, cell-based; conditions: U-266, 192 h
[20] = system: NCI-H1930; assay: Cytotoxicity against human NCI-H1930 cells measured after 8 days; assay type: functional, cell-based; conditions: NCI-H1930, 192 h
[21] = system: SiHa; assay: Cytotoxicity against human SiHa cells measured after 8 days; assay type: functional, cell-based; conditions: 192 h
[22] = system: OE33; assay: Cytotoxicity against human OE33 cells measured after 8 days; assay type: functional, cell-based; conditions: OE33, 192 h
[23] = Cytotoxicity against human HCC1534 cells measured after 8 days; assay type: functional, cell-based; conditions: HCC1534, 192 h
[24] = system: MCF-10A; assay: Cytotoxicity against human MCF-10A CDH1-/- cells measured after 8 days; assay type: functional, cell-based; conditions: 192 h
[25] = Cytotoxicity against human GOS-3 cells measured after 8 days; assay type: functional, cell-based; conditions: GOS-3, 192 h
[26] = Cytotoxicity against human NCE-G 122 cells measured after 8 days; assay type: functional, cell-based; conditions: NCE-G 122, 192 h
[27] = system: KMS-12-PE; assay: Cytotoxicity against human KMS-12-PE cells measured after 8 days; assay type: functional, cell-based; conditions: 192 h
[28] = system: A2780; assay: Cytotoxicity against human A2780 cells measured after 8 days; assay type: functional, cell-based; conditions: A2780, 192 h
[29] = Cytotoxicity against human Kelly cells measured after 8 days; assay type: functional, cell-based; conditions: 192 h
[30] = system: BT-20; assay: Cytotoxicity against human BT-20 cells measured after 8 days; assay type: functional, cell-based; conditions: BT-20, 192 h
[31] = Cytotoxicity against human COLO 685 cells measured after 8 days; assay type: functional, cell-based; conditions: COLO 685, 192 h
[32] = system: SK-CO-1; assay: Cytotoxicity against human SK-CO-1 cells measured after 8 days; assay type: functional, cell-based; conditions: SK-CO-1, 192 h
[33] = system: Renca; assay: Cytotoxicity against mouse Renca cells measured after 8 days; assay type: functional, cell-based; conditions: 192 h
[34] = system: JJN-3; assay: Cytotoxicity against human JJN-3 cells measured after 8 days; assay type: functional, cell-based; conditions: JJN-3, 192 h
[35] = system: SET-2; assay: Cytotoxicity against human SET2 cells measured after 8 days; assay type: functional, cell-based; conditions: SET-2, 192 h
[36] = system: 769-P; assay: Cytotoxicity against human 769-P cells measured after 8 days; assay type: functional, cell-based; conditions: 192 h
[37] = system: SW1463; assay: Cytotoxicity against human SW1463 cells measured after 8 days; assay type: functional, cell-based; conditions: SW1463, 192 h
[38] = system: MG-63; assay: Cytotoxicity against human MG-63 cells measured after 8 days; assay type: functional, cell-based; conditions: MG-63, 192 h
[39] = Cytotoxicity against human DEOC-1 cells measured after 8 days; assay type: functional, cell-based; conditions: DEOC-1, 192 h
[40] = Cytotoxicity against human JHH-2 cells measured after 8 days; assay type: functional, cell-based; conditions: JHH-2, 192 h
[41] = Cytotoxicity against human NCE-G 118 cells measured after 8 days; assay type: functional, cell-based; conditions: NCE-G 118, 192 h
[42] = system: KM12; assay: Cytotoxicity against human KM12 cells measured after 8 days; assay type: functional, cell-based; conditions: KM12, 192 h
[43] = Cytotoxicity against human NCE-G 59 cells measured after 8 days; assay type: functional, cell-based; conditions: NCE-G 59, 192 h
[44] = Cytotoxicity against human KPP14388 LN cells measured after 8 days; assay type: functional, cell-based; conditions: 192 h
[45] = Cytotoxicity against human MCAS cells measured after 8 days; assay type: functional, cell-based; conditions: 192 h
[46] = Cytotoxicity against human 537-mel cells measured after 8 days; assay type: functional, cell-based; conditions: 192 h
[47] = Cytotoxicity against human KPR3070 cells measured after 8 days; assay type: functional, cell-based; conditions: KPR3070, 192 h
[48] = biological target: Serine/threonine-protein kinase PLK1 (Homo sapiens) (UniProt P53350); assay: Inhibition of PLK1 (unknown origin) at 1 uM relative to control
[49] = system: CHP-212; assay: Cytotoxicity against human CHP-212 cells measured after 8 days; assay type: functional, cell-based; conditions: CHP-212, 192 h
[50] = system: KMS-11; assay: Cytotoxicity against human KMS-11 cells measured after 8 days; assay type: functional, cell-based; conditions: KMS-11, 192 h
[51] = Cytotoxicity against human FA9JTOTERT cells measured after 8 days; assay type: functional, cell-based; conditions: 192 h
[52] = system: Ca-Ski; assay: Cytotoxicity against human Ca-Ski cells measured after 8 days; assay type: functional, cell-based; conditions: 192 h
[53] = Cytotoxicity against human HEC-251 cells measured after 8 days; assay type: functional, cell-based; conditions: HEC-251, 192 h
[54] = Cytotoxicity against human IGR-39 cells measured after 8 days; assay type: functional, cell-based; conditions: IGR-39, 192 h
[55] = system: CAKI-1; assay: Cytotoxicity against human CAKI-1 cells measured after 8 days; assay type: functional, cell-based; conditions: CAKI-1, 192 h
[56] = system: BHY; assay: Cytotoxicity against human BHY cells measured after 8 days; assay type: functional, cell-based; conditions: 192 h
[57] = Cytotoxicity against human UKE-1 cells measured after 8 days; assay type: functional, cell-based; conditions: UKE1, 192 h
[58] = Cytotoxicity against human KMRC-1 cells measured after 8 days; assay type: functional, cell-based; conditions: KMRC-1, 192 h
[59] = system: CCF-STTG1; assay: Cytotoxicity against human CCF-STTG1 cells measured after 8 days; assay type: functional, cell-based; conditions: CCF-STTG1, 192 h
[60] = system: EFE-184; assay: Cytotoxicity against human EFE-184 cells measured after 8 days; assay type: functional, cell-based; conditions: EFE-184, 192 h
[61] = Cytotoxicity against human HEC-6 cells measured after 8 days; assay type: functional, cell-based; conditions: HEC-6, 192 h
[62] = system: KP-N-YN; assay: Cytotoxicity against human KP-N-YN cells measured after 8 days; assay type: functional, cell-based; conditions: 192 h

Chain of Serine/threonine-protein kinase PLK1 (Homo sapiens) (P53350 whole entry): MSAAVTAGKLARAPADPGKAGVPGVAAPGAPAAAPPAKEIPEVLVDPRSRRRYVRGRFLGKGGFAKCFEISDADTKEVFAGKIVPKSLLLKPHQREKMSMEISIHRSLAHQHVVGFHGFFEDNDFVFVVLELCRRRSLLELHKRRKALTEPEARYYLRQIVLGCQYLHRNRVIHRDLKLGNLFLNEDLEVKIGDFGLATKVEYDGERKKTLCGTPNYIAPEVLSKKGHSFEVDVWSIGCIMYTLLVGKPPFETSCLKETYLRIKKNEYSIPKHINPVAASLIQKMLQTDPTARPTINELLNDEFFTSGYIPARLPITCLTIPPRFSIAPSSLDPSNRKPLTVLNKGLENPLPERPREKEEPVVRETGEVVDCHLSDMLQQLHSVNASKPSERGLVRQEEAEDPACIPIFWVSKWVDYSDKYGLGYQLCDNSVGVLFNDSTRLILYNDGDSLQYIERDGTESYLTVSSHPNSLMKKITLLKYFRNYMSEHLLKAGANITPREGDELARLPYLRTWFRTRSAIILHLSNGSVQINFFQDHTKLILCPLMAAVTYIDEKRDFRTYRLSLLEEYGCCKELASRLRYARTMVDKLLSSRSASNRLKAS

C/C=C/Cn1cc(-c2cc(OC)c(C(=O)N3CCOCC3)cc2OC)c2cc(C)[nH]c2c1=O
2 µM: IC50 [2]
> 20 µM: IC50 [1]

C/C=C/Cn1cc(-c2ccc(C(C)(C)O)cc2OC)c2cc[nH]c2c1=O
20 µM: IC50 [3] | IC50 [4] | IC50 [6] | IC50 [7] | IC50 [8] | IC50 [9] | IC50 [10] | IC50 [11] | IC50 [12] | IC50 [13] | IC50 [14] | IC50 [15] | IC50 [16] | IC50 [17] | IC50 [18] | IC50 [19] | IC50 [20] | IC50 [21] | IC50 [22] | IC50 [23] | IC50 [24] | IC50 [25] | IC50 [26] | IC50 [27] | IC50 [28] | IC50 [29] | IC50 [30] | IC50 [31] | IC50 [32] | IC50 [33] | IC50 [35] | IC50 [36] | IC50 [37] | IC50 [2] | IC50 [39] | IC50 [40] | IC50 [41] | IC50 [42] | IC50 [43] | IC50 [44] | IC50 [45] | IC50 [46] | IC50 [47] | IC50 [49] | IC50 [51] | IC50 [52] | IC50 [53] | IC50 [54] | IC50 [55] | IC50 [56] | IC50 [57] | IC50 [58] | IC50 [59] | IC50 [60] | IC50 [61] | IC50 [62]
1%: inhibition [48]
10.7 µM: IC50 [5]
> 20 µM: IC50 [1]
17.6 µM: IC50 [34]
9.13 µM: IC50 [50]
7.4 µM: IC50 [38]
